According to PMC9948186 (ACS Omega, 2023):

Molecular target: T1, Microtubule affinity regulatory kinase 4 (MARK4) (Homo sapiens, UniProt Q96L34)
T1 sequence (Q96L34 1-752): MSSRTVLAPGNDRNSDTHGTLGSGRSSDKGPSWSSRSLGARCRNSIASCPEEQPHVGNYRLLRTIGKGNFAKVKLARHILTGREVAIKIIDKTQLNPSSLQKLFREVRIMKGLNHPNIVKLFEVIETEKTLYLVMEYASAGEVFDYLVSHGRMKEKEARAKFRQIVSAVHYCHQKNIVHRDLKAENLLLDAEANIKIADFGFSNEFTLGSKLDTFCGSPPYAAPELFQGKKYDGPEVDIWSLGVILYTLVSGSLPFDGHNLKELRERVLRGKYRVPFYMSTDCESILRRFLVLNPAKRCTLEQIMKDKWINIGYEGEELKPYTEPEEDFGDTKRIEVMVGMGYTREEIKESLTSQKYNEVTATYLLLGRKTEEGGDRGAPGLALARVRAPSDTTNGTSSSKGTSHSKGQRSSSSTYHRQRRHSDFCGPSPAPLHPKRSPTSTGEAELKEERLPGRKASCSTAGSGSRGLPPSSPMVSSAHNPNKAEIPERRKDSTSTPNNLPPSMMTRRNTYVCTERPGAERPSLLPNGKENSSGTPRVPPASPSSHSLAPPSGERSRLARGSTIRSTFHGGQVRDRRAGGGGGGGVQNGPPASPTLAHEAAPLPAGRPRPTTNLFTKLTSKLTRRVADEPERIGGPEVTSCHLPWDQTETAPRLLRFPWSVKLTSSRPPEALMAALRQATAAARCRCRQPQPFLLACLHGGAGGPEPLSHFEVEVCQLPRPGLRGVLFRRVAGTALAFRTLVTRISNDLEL
Experiment: malachite green ATPase
Assay type: biochemical

IC50 [µM] | Compound
7.1 | OC[C@H]1O[C@@H](c2ccc(Cl)c(Cc3ccc(O[C@H]4CCOC4)cc3)c2)[C@H](O)[C@@H](O)[C@@H]1O [empagliflozin]
7.63 | CC#CCn1c(N2CCC[C@@H](N)C2)nc2c1c(=O)n(Cc1nc(C)c3ccccc3n1)c(=O)n2C [linagliptin]
